Measured values: patent US10472349B2, “Salt of pyridinyl amino pyrimidine derivative, preparation method therefor, and application thereof” (SHANGHAI ALLIST PHARMACEUTICALS, INC., priority 2016, dated 2019)
Counter-ions that a name gives are not always drawn. One block for each molecule: values may come before it.

Legend:
[1] = Drug absorption experiment in SD rats, intragastric administration; type: in vivo, SD rats (Sprague Dawley rats); details: for half-life: read-out: T1/2 (elimination half-life) (converted)
Experimental: The determination method for the absolute bioavailability of the intragastric administration of the mesylate salts of the compound of formula (I) is as follows: • For intravenous administration: Healthy SD rats are randomly grouped. The tested compound is administered in a certain dosage D through the intravenous administration. The blood samples are collected through the retrobulbar venous plexus before the administration and 5 min, 15 min, 0.5 h, 1.0 h, 2.0 h, 4.0 h, 8.0 h, 12 h and 24 h after the administration, and separated to give plasmas. […] The tested substance is administered in a certain dosage D through the intragastric administration.
After dosage calibration, the absolute bioavailability F is calculated by the area under the drug concentration-time curve (AUC0-t). The calculation equation is as follows: F=(AUCintragastric×Dintravenous)/(AUCintravenous[…])×100%.
For intragastric administration: 16 healthy (half male and half female) SD rats with 200-280 g body weight, provided by Shanghai Sippr-BK laboratory animal Co. Ltd., were assigned randomly to 4 groups.
After dosage calibration, the absolute bioavailability F was obtained by calculation of AUC0-t. The calculation equation was as follows: F=(AUCintragastric×Dintravenous)/(AUCintravenous×Dintragastric)×100%. The obtained absolute bioavailability F data are shown in the above table 2.

[2] = Drug absorption experiment in SD rats, intravenous administration; type: in vivo, SD rats (Sprague Dawley rats); details: plasma
Experimental: The determination method for the absolute bioavailability of the intragastric administration of the mesylate salts of the compound of formula (I) is as follows: • For intravenous administration: Healthy SD rats are randomly grouped. The tested compound is administered in a certain dosage D through the intravenous administration. The blood samples are collected through the retrobulbar venous plexus before the administration and 5 min, 15 min, 0.5 h, 1.0 h, 2.0 h, 4.0 h, 8.0 h, 12 h and 24 h after the administration, and separated to give plasmas. The concentration of the drug in plasma is determined with the liquid chromatography-tandem mass spectrometry method to give a drug concentration-time curve. • For intragastric administration: Healthy SD rats are randomly grouped. The tested substance is administered in a certain dosage D through the intragastric administration. The intravenous blood samples are collected through the rat's retrobulbar venous plexus before the administration and 0.5, 1.0, 2.0, 4.0, 6.0, 8.0, 10, 12 and 24 h after the administration, and separated to give plasmas. The concentration of the drug in plasma is determined with the liquid chromatography-tandem mass spectrometry method to give a drug concentration-time curve.
For intravenous administration: 16 healthy (half male and half female) SD rats with 200-280 g body weight, provided by Shanghai Sippr-BK laboratory animal Co. Ltd., were assigned randomly to 4 groups. […] 0.2 ml of the intravenous blood samples were collected through the rat's retrobulbar venous plexus before the administration and 5 min, 15 min, 0.5 h, 1.0 h, 2.0 h, 4.0 h, 8.0 h, 12 h and 24 h after the administration, and separated to give plasmas. The concentration of the drug in plasma was determined with the liquid chromatography-tandem mass spectrometry method to give a drug concentration-time curve.
T1/2: elimination half-life; Cmax: maximum drug concentration in plasma; AUC0-t: area under drug concentration-time curve.

[3] = tested on: subcutaneously transplanted tumors of human lung cancer H1975; assay: Inhibition effect on the growth of subcutaneously transplanted tumors of human lung cancer H1975-bearing nude mice; type: in vivo; details: 25 mg/kg intragastric, once per day for 21 days
Text: The pharmacodynamics of the mesylate salts of the compound of formula (I) in terms of inhibiting the growth of transplanted tumors in animal may be assayed by conventional methods. One preferable evaluation method aims to the inhibitory effect on the growth of subcutaneously transplanted tumors of human lung cancer H1975-bearing nude mice. The experimental method may be as follows: human lung cancer H1975 cell strain (5×10^6/each mouse) is inoculated to nude mice subcutaneously at the right side of the back thereof. After the tumors grow to 100-150 mm^3 on average, the animals are divided into groups randomly according to the tumor size and the animal weight. […] During the entire experimental process, the animal weight and the tumor size are measured twice per week, so as to observe whether or not the toxic reaction occurs.
The tumor volume is calculated as follows: Tumor volume (mm^3)=0.5×Tumor major diameter×Tumor minor diameter×Tumor minor diameter. […]
Cell cultivation: H1975 was placed in a RPMI-1640 medium containing 10% FBS, and cultivated in a temperature-constant incubator containing 5% CO2 at 37° C. The cells in exponential growth phase were collected and counted for inoculation. […]
The tumor volume was calculated as follows: Tumor volume (mm^3)=0.5×Tumor major diameter×Tumor minor diameter×Tumor minor diameter.

[4] = both sexes, Sprague-Dawley, rat, plasma, po, intragastric, dosage 10 (Example 1), 10 (Example 2), 6 (Comparative Example 1), 10 (Comparative Example 2) mg/kg, plasma, read-out: AUC0-t
[5] = both sexes, Sprague-Dawley, rat, plasma, po, intragastric, dosage 10 (Example 1), 10 (Example 2), 6 (Comparative Example 1), 10 (Comparative Example 2) mg/kg, plasma, read-out: Cmax
[6] = both sexes, Sprague-Dawley, rat, plasma, po, intragastric, dosage 10 (Example 1), 10 (Example 2), 6 (Comparative Example 1), 10 (Comparative Example 2) mg/kg, plasma
[7] = intragastric, dosage 10 (Example 1), 10 (Example 2), 6 (Comparative Example 1), 10 (Comparative Example 2) mg/kg, plasma
[8] = SD rats, intravenous, dosage 2.5 (Example 1), 4.0 (Example 2), 3.0 (Comparative Example 1), 4.0 (Comparative Example 2) mg/kg

AUC(0-t) [1, 4]: 77.7 ng·h/mL
Cmax [1, 5]: 12.6 ng/mL
half-life [1, 6]: 8.6 h
SMILES: C=CC(=O)Nc1cc(Nc2nccc(-c3cn(C)c4ccccc34)n2)c(OC(C)C)nc1N(C)CCN(C)C [Comparative Example 1, reference compound]

SMILES: C=CC(=O)Nc1cc(Nc2nccc(-c3cn(C)c4ccccc34)n2)c(OCC(F)(F)F)nc1N(C)CCN(C)C [Example 2, mesylate salt of N-{2-{[2-(dimethylamino)ethyl](methyl)amino}-6-(2,2,2-trifluoroethoxy)-5-{[4-(1-methyl-1H-indol-3-yl)pyrimidin-2-yl]amino}pyridin-3-yl}acrylamide]
AUC(0-t) ([2]; both sexes, Sprague-Dawley, rat, iv, read-out: AUC0-t): 406 ng·h/mL
Cmax ([2]; both sexes, Sprague-Dawley, rat, iv, read-out: Cmax): 430 ng/mL
half-life ([2]; both sexes, Sprague-Dawley, rat, iv, read-out: T1/2 (elimination half-life) (converted)): 3.13 h
bioavailability ([1]; both sexes, Sprague-Dawley, rat, plasma, oral, intragastric vs intravenous, calculated from AUC0-t after dosage calibration, read-out: F (absolute bioavailability)): 28.3%
AUC(0-t) [1, 7]: 287 ng·h/mL
Cmax [1, 7]: 44.54 ng/mL
T1/2 (elimination half-life) [1, 7]: 8.33 h
Inhibition effect on the growth of subcutaneously transplanted tumors [3]: good inhibition effect
Safety (body weight, toxic reaction) [3]: good safety

SMILES: C=CC(=O)Nc1cc(Nc2nccc(-c3cn(C)c4ccccc34)n2)c(OCC(F)(F)F)nc1N(C)CCN(C)C [Example 1, N-{2-{[2-(dimethylamino)ethyl](methyl)amino}-6-(2,2,2-trifluoroethoxy)-5-{[4-(1-methyl-1H-indol-3-yl)pyrimidin-2-yl]amino}pyridin-3-yl}acrylamide]
AUC(0-t) [2, 8]: 307.3 ng·h/mL
Cmax [2, 8]: 81.3 ng/mL
T1/2 (elimination half-life) [2, 8]: 3.96 h
AUC(0-t) [1, 4]: 232 ng·h/mL
F (absolute bioavailability) ([1]; intragastric vs intravenous, calculated from AUC0-t after dosage calibration): 18.85%
Cmax [1, 7]: 17.6 ng/mL

AUC(0-t) [1, 4]: 172 ng·h/mL
Cmax [1, 5]: 28.3 ng/mL
half-life [1, 6]: 5.76 h
SMILES: C=CC(=O)Nc1cc(Nc2ncc(Cl)c(-c3cn(C)c4ccccc34)n2)c(OC(C)C)nc1N(C)CCN(C)C [Comparative Example 2, reference compound]
